According to BindingDB's records for doi:10.1016/j.bmcl.2021.128422 (Tohoku Medical and Pharmaceutical University, 2021):

target: Maltase-glucoamylase (Homo sapiens, UniProt O43451); assay: Inhibition of alpha-glucosidase (unknown origin) using p-nitrophenyl-alpha-D-glucopyranoside as substrate incubated for 50 mins by microplate reader analysis
Sequence (O43451 whole entry): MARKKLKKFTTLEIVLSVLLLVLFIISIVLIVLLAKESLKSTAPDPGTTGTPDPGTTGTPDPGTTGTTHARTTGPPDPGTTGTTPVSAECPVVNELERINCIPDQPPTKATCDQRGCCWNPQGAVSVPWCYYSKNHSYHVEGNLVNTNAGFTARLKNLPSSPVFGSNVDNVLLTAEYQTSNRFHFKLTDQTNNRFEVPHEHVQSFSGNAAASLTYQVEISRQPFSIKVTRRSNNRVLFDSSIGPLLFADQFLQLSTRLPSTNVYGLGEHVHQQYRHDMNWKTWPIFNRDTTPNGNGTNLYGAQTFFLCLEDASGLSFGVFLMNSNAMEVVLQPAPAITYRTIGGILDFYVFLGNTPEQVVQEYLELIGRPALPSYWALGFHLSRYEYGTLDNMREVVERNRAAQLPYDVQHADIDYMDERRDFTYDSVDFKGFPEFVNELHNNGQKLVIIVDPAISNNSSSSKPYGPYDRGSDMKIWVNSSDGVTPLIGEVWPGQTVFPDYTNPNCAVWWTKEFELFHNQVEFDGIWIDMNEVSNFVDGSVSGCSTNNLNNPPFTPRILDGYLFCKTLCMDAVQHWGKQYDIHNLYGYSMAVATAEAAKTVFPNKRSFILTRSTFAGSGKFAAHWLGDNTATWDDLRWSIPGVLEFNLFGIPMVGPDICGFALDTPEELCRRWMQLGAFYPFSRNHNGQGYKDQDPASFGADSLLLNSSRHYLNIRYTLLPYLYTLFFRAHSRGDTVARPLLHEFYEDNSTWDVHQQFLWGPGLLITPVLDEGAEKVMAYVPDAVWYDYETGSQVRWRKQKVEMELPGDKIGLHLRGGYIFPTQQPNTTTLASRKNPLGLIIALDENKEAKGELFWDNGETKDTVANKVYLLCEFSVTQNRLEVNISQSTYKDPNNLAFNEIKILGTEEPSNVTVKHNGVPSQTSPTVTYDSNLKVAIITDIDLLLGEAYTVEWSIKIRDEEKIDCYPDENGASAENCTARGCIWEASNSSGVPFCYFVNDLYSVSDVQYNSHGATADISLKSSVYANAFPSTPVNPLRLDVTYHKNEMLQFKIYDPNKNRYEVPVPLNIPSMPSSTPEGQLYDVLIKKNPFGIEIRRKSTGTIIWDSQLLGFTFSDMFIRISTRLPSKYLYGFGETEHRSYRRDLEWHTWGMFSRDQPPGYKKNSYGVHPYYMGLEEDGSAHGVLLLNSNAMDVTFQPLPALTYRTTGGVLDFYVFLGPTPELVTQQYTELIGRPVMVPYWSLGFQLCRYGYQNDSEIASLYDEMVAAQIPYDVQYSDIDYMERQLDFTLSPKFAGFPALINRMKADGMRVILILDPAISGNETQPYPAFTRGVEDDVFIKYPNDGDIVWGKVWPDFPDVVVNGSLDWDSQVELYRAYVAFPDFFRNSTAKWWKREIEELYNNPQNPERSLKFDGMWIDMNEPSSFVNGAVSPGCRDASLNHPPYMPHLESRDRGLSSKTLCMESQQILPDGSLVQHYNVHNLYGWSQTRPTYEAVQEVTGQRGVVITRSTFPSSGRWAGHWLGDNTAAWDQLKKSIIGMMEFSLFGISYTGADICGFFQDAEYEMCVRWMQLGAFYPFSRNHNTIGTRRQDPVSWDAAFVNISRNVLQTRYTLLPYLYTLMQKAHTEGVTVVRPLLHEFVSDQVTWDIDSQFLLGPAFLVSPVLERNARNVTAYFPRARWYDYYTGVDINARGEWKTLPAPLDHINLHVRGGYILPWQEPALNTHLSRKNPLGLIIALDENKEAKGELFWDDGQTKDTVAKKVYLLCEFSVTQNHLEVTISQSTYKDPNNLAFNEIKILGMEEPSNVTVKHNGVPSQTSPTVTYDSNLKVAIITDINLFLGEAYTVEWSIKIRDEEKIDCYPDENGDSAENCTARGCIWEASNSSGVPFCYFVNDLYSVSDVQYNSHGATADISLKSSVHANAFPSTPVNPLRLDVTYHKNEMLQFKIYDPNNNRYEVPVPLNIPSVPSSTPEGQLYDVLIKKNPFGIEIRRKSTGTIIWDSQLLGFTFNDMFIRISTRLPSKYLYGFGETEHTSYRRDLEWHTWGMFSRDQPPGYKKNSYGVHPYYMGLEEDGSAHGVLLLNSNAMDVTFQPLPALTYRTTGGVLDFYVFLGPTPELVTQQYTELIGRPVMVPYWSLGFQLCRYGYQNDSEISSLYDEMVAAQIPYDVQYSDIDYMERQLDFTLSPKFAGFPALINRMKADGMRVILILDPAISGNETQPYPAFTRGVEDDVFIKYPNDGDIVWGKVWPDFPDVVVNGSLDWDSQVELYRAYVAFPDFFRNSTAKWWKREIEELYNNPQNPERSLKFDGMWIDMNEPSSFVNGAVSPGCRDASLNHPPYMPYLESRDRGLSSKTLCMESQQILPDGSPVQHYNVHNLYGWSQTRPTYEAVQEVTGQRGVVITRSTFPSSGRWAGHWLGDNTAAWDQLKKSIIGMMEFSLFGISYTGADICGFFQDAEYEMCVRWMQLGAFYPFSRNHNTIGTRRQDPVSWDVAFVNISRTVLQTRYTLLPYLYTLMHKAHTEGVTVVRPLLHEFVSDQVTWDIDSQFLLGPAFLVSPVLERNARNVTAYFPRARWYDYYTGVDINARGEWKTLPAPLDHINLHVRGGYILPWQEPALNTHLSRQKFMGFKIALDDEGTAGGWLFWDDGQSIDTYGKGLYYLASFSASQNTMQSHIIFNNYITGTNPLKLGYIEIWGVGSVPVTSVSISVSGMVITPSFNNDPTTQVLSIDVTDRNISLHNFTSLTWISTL

| Compound | IC50 |
| --- | --- |
| C=C1C(=O)O[C@@H]2/C=C(\C)[C@@H](O)C/C=C(\C)C[C@@H](OC(=O)/C(=C\C)COC(C)=O)[C@@H]12 | > 25 µM |
| C=C1C(=O)O[C@@H]2/C=C(\C)CC/C=C(\C)C[C@@H](OC(=O)/C(=C\COC(C)=O)CO)[C@@H]12 | > 29 µM |
| C=C1C(=O)O[C@@H]2/C=C(\C)CC/C=C(\CO)C[C@@H](OC(=O)/C(C)=C/C)[C@@H]12 | > 25 µM |
| C=C1C(=O)O[C@@H]2/C=C(\C)CC/C=C(\C)C[C@@H](OC(=O)/C(=C\C)CO)[C@@H]12 | > 29 µM |
| C=C1C(=O)O[C@@H]2/C=C(\C)C[C@H](O)/C=C(\C)C[C@@H](OC(=O)/C(=C\C)CO)[C@@H]12 | > 28 µM |
| C=C1C(=O)O[C@@H]2/C=C(\C)C[C@H](O)/C=C(\C)C[C@@H](OC(=O)/C(=C\C)COC(C)=O)[C@@H]12 | > 25 µM |
| C=C1C(=O)O[C@@H]2/C=C(\C)CC/C=C(\C)C[C@@H](OC(=O)/C(=C/C)CO)[C@@H]12 | > 29 µM |
| C=C1C(=O)O[C@@H]2/C=C(\C)CC/C=C(\C)C[C@@H](OC(=O)/C(=C/C)COC(C)=O)[C@@H]12 | > 25 µM |
| C=C1C(=O)O[C@@H]2/C=C(\C)CC/C=C(\C)C[C@@H](OC(=O)/C(=C/CO)CO)[C@@H]12 | > 28 µM |
| O=c1c(O)c(-c2ccc(O)c(O)c2)oc2cc(O)cc(O)c12 [2-(3,4-dihydroxyphenyl)-3,5,7-trihydroxy-chromone;hydrate] | 10.8 µM |
